According to the NIST ThermoML archive (doi:10.1016/j.jct.2015.05.014):
Numbers after ± are expanded uncertainties.

Experiment: activity coefficient (dimensionless); of the first substance listed, at infinite dilution; xn = mol fraction of the nth substance listed
Conditions: 100 kPa, Liquid, Chromatography, x1 = 0

| SMILES | activity coefficient (308.15 K) | activity coefficient (318.15 K) | activity coefficient (328.15 K) | activity coefficient (338.15 K) | activity coefficient (348.15 K) | activity coefficient (358.15 K) | activity coefficient (368.15 K) | activity coefficient (378.15 K) | activity coefficient (388.15 K) | activity coefficient (398.15 K) | activity coefficient (408.15 K) |
| --- | --- | --- | --- | --- | --- | --- | --- | --- | --- | --- | --- |
| C#CCCC [1-pentyne] + CC(O)C(=O)[O-].CC[N+]1(C)CCCC1 | 3.18 ± 0.27 | 3.43 ± 0.3 | 3.66 ± 0.32 | 3.95 ± 0.34 | 4.2 ± 0.4 | 4.46 ± 0.38 | 4.69 ± 0.4 | – | – | – | – |
| C1CCCCC1 [cyclohexane] + CC(O)C(=O)[O-].CC[N+]1(C)CCCC1 | 52.7 ± 4.6 | 48.6 ± 4.2 | 45 ± 3.9 | 42.6 ± 3.7 | 40.6 ± 3.5 | 38.4 ± 3.3 | 36.3 ± 3.1 | – | – | – | – |
| CC#N [acetonitrile] + CC(O)C(=O)[O-].CC[N+]1(C)CCCC1 | – | 0.773 ± 0.065 | 0.808 ± 0.068 | 0.844 ± 0.07 | 0.88 ± 0.07 | 0.915 ± 0.076 | 0.962 ± 0.079 | – | – | – | – |
| Cc1ccccc1C [1,2-dimethylbenzene] + CC(O)C(=O)[O-].CC[N+]1(C)CCCC1 | – | 8.23 ± 0.71 | 8.33 ± 0.72 | 8.46 ± 0.73 | 8.57 ± 0.74 | 8.69 ± 0.75 | 8.9 ± 0.8 | – | – | – | – |
| CCCCCCC [heptane] + CC(O)C(=O)[O-].CC[N+]1(C)CCCC1 | 213 ± 18 | 196 ± 17 | 180 ± 16 | 167 ± 14 | 154 ± 13 | 144 ± 12 | 133 ± 12 | – | – | – | – |
| CCCCCCCCC [nonane] + CC(O)C(=O)[O-].CC[N+]1(C)CCCC1 | 518 ± 45 | 474 ± 41 | 423 ± 37 | 389 ± 34 | 358 ± 31 | 326 ± 28 | 297 ± 26 | – | – | – | – |
| C1COCCO1 [1,4-dioxane] + CC(O)C(=O)[O-].CC[N+]1(C)CCCC1 | – | 2.25 ± 0.19 | 2.33 ± 0.2 | 2.4 ± 0.21 | 2.48 ± 0.21 | 2.55 ± 0.22 | 2.65 ± 0.23 | – | – | – | – |
| C1CCCCCCC1 [cyclooctane] + CC(O)C(=O)[O-].CC[N+]1(C)CCCC1 | 95.8 ± 8.3 | 88.7 ± 7.7 | 82.1 ± 7.1 | 77.2 ± 6.7 | 72.6 ± 6.3 | 68 ± 5.9 | 63.9 ± 5.5 | – | – | – | – |
| Cc1cccc(C)c1 [1,3-dimethylbenzene] + CC(O)C(=O)[O-].CC[N+]1(C)CCCC1 | – | 10.1 ± 0.9 | 10.2 ± 0.9 | 10.4 ± 0.9 | 10.4 ± 0.9 | 10.5 ± 0.9 | 10.7 ± 0.9 | – | – | – | – |

Continued, values first:

| activity coefficient (308.15 K) | activity coefficient (318.15 K) | activity coefficient (328.15 K) | activity coefficient (338.15 K) | activity coefficient (348.15 K) | activity coefficient (358.15 K) | activity coefficient (368.15 K) | activity coefficient (378.15 K) | activity coefficient (388.15 K) | activity coefficient (398.15 K) | activity coefficient (408.15 K) | SMILES |
| --- | --- | --- | --- | --- | --- | --- | --- | --- | --- | --- | --- |
| 22.4 ± 1.9 | 21.7 ± 1.9 | 20.7 ± 1.8 | 20.2 ± 1.7 | 19.7 ± 1.7 | 19.5 ± 1.7 | 18.9 ± 1.6 | – | – | – | – | C1=CCCCC1 [cyclohexene] + CC(O)C(=O)[O-].CC[N+]1(C)CCCC1 |
| – | 1.29 ± 0.11 | 1.38 ± 0.12 | 1.47 ± 0.12 | 1.56 ± 0.13 | 1.64 ± 0.14 | 1.75 ± 0.15 | – | – | – | – | c1ccsc1 [thiophene] + CC(O)C(=O)[O-].CC[N+]1(C)CCCC1 |
| 135 ± 12 | 125 ± 11 | 114 ± 10 | 107 ± 9 | 99.9 ± 8.7 | 94.6 ± 8.2 | 88.7 ± 7.7 | – | – | – | – | CCCCCC [hexane] + CC(O)C(=O)[O-].CC[N+]1(C)CCCC1 |
| – | – | – | – | – | 0.086 ± 0.03 | 0.095 ± 0.03 | 0.105 ± 0.03 | 0.116 ± 0.03 | 0.125 ± 0.03 | 0.137 ± 0.029 | CO [methanol] + CC(O)C(=O)[O-].CC[N+]1(C)CCCC1 |
| – | 9.27 ± 0.8 | 9.36 ± 0.81 | 9.45 ± 0.82 | 9.58 ± 0.83 | 9.68 ± 0.84 | 9.86 ± 0.85 | – | – | – | – | CCc1ccccc1 [ethylbenzene] + CC(O)C(=O)[O-].CC[N+]1(C)CCCC1 |
